Reference: US20230181546A1, “TREATMENT OF RESPIRATORY DISEASES WITH AMINO ACID COMPOUNDS” (Pliant Therapeutics, Inc., priority 2020, published 2023)

Molecular target: recombinant human integrin αVβ6 (Homo sapiens, UniProt P06756+P18564)
Test: Solid phase integrin αVβ6 binding assay (Examples B1, B2)
Conditions: TGFβ1 LAP binding, values given in four ranges, read-out: αvβ6 Inhibition IC50 (nM) - range
Experimental: (§1) Microplates were coated with recombinant human integrin αVβ6 (2 μg/mL) in PBS (100 μL/well 25° C., overnight). The coating solution was removed, washed with wash buffer (0.05% Tween 20: 0.5 mM MnCl2; in 1×TBS). The plate was blocked with 200 μL/well of Block Buffer (1% BSA; 5% sucrose; 0.5 mM MnCl2; in 1×TBS) at 37° C. for 2 h. Dilutions of testing compounds and recombinant TGFβ1 LAP (0.67 μg/mL) in binding buffer (0.05% BSA; 2.5% sucrose; 0.5 mM MnCl2; in 1×TBS) were added. The plate was incubated for 2 hours at 25° C., washed, and incubated for 1 hour with Biotin-Anti-hLAP. Bound antibody was detected by peroxidase-conjugated streptavidin. The IC50 values for testing compounds were calculated by a four-parameter logistic regression.
The compounds tested were compound samples prepared according to procedures described in the Synthetic Examples section, with the stereochemical purity as indicated in the Examples.
as §1, with “A third series of exemplary compounds was selected for testing in the solid phase integrin αVβ6 binding assay. The compounds tested were compound samples prepared according to procedures described in the Synthetic Examples section, with the stereochemical purity as indicated in the Examples. As in Example B1, microplates” for “Microplates”, “20;” for “20:”

recombinant human integrin αVβ6, sequence (P06756 31-992 limits assumed): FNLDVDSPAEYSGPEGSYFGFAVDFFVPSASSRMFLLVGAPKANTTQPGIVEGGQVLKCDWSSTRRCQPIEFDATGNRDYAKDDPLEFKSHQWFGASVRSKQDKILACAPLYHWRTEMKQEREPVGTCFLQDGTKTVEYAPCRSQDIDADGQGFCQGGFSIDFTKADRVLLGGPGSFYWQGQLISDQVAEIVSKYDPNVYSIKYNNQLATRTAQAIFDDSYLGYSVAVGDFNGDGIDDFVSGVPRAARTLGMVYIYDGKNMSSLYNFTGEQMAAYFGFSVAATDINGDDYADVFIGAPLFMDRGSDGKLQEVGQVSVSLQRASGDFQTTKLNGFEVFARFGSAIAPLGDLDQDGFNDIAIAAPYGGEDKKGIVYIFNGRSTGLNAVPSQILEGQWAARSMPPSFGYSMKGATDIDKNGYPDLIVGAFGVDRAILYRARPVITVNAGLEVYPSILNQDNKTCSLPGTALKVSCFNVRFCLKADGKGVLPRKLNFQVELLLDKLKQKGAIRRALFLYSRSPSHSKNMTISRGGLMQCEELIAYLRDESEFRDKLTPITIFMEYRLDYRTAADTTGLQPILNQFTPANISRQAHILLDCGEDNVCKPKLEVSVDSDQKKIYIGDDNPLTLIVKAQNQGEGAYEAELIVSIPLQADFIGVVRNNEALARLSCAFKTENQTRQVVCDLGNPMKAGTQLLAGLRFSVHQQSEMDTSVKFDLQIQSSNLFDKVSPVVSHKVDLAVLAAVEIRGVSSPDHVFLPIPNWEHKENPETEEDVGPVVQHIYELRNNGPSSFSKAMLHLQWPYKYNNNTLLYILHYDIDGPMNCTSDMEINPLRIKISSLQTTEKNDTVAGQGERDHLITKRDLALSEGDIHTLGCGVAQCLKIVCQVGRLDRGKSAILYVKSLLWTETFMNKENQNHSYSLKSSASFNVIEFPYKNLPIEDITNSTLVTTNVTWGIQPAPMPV
recombinant human integrin αVβ6, sequence (P18564 22-707 limits assumed): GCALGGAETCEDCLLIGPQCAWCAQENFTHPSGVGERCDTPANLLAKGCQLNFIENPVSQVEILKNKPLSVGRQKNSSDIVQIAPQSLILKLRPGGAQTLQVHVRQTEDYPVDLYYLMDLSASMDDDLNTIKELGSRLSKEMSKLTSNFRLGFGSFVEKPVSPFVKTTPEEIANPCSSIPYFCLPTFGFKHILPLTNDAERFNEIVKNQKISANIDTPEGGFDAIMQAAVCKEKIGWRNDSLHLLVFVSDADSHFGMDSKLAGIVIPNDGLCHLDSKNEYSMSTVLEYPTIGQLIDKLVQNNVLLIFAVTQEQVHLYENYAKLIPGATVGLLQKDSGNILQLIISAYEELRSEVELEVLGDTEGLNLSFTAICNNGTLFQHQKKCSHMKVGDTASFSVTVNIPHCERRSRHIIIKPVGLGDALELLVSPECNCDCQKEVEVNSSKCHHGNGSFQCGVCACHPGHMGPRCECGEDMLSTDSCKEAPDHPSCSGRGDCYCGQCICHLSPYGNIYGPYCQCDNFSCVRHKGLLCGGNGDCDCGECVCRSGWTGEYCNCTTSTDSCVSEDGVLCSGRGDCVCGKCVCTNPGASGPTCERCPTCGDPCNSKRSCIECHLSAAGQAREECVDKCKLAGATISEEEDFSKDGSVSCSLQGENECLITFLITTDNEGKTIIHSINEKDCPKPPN

SMILES | IC50
O=C(O)[C@H](CCN(CCCCc1ccc2c(n1)NCCC2)CCOc1ccccc1)Nc1ncc(Br)cn1 [Compound 83, (S)-2-((5-bromopyrimidin-2-yl)amino)-4-((2-phenoxyethyl) (4-(5,6,7,8-tetrahydro-1,8-naphthyridin-2-yl)butyl)amino) butanoic acid] | < 50 nM
O=C(O)[C@H](CCN(CCCCc1ccc2c(n1)NCCC2)CCOc1ccccc1)Nc1ccnc(C(F)(F)F)n1 [Compound 92, (S)-4-((2-phenoxyethyl) (4-(5,6,7,8-tetrahydro-1,8-naphthyridin-2-yl)butyl)amino)-2-((2-(rifluoromethyl)pyrimidin-4-yl)amino) butanoic acid] | < 50 nM
O=C(O)[C@H](CCN(CCCCc1ccc2c(n1)NCCC2)CC(F)F)Nc1ccncn1 [Compound 120, (S)-4-((2,2-difluoroethyl) (4-(5,6,7,8-tetrahydro-1,8-naphthyridin-2-yl)butyl)amino)-2-(pyrimidin-4-ylamino) butanoic acid] | > 1000 nM

Now from value to compound:

IC50 | SMILES
< 50 nM | COCCN(CCCCc1ccc2c(n1)NCCC2)CC[C@H](Nc1cc(C(F)F)ncn1)C(=O)O [Compound 23, (S)-2-((6-(difluoromethyl)pyrimidin-4-yl)amino)-4-((2-methoxyethyl) (4-(5,6,7,8-tetrahydro-1,8-naphthyridin-2-yl)butyl)amino) butanoic acid]
< 50 nM | O=C(O)[C@H](CCN(CCCCc1ccc2c(n1)NCCC2)CCOC(F)F)Nc1ncnc2ccccc12 [Compound 35, (S)-4-((2-(difluoromethoxy)ethyl) (4-(5,6,7,8-tetrahydro-1,8-naphthyridin-2-yl)butyl)amino)-2-(quinazolin-4-ylamino) butanoic acid]
< 50 nM | Cc1ncccc1OCCN(CCCCc1ccc2c(n1)NCCC2)CC[C@H](Nc1ncnc2cccnc12)C(=O)O [Compound 54, (S)-4-((2-((2-methylpyridin-3-yl)oxy)ethyl) (4-(5,6,7,8-tetrahydro-1,8-naphthyridin-2-yl)butyl)amino)-2-(pyrido[3,2-d]pyrimidin-4-ylamino) butanoic acid]
< 50 nM | CO[C@H](C)CN(CCCCc1ccc2c(n1)NCCC2)CC[C@H](Nc1ncc(Br)cn1)C(=O)O [Compound 70, (S)-2-((5-bromopyrimidin-2-yl)amino)-4-(((R)-2-methoxypropyl) (4-(5,6,7,8-tetrahydro-1,8-naphthyridin-2-yl)butyl)amino) butanoic acid]
